Test results published in patent US12077503B2, “Substituted cyclic amides and their use as herbicides” (FMC CORPORATION, priority 2015, dated 2024).

Key:
Type in all cases: in vivo
[1] = system: ivy-leaved morning glory (Ipomoea hederacea); assay: Test G Pre-Emergence Protocol; conditions: Ipomoea, pre-emergence, 312 h, evaluated after 13 days
Procedure, shortened: (§1)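 One day after sowing, pots are treated with a spray of test compound formulated in acetone/water 50:50 plus 0.5% Tween 20, giving 15.625, 62.5 or 250 g/ha. Evaluation on a 0–100 damage scale follows 13 days of glasshouse growth.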

[2] = system: velvetleaf (Abutilon theophrasti); assay: Test G Pre-Emergence Protocol; conditions: Abutilon theophrasti, pre-emergence, 312 h, evaluated after 13 days
Procedure, shortened: as §1

[3] = system: giant foxtail (Setaria faberi); assay: Test G Pre-Emergence Protocol; conditions: Setaria faberi, pre-emergence, 312 h, evaluated after 13 days
Procedure, shortened: as §1

corn (Zea mays) [4] = assay: Test G Pre-Emergence Protocol; conditions: Zea mays, pre-emergence, 312 h, evaluated after 13 days
Procedure, shortened: as §1

[5] = system: redroot pigweed (Amaranthus retroflexus); assay: Test G Pre-Emergence Protocol; conditions: Amaranthus retroflexus, pre-emergence, 312 h, evaluated after 13 days
Procedure, shortened: as §1

[6] = system: barnyardgrass (Echinochloa crus-galli); assay: Test G Pre-Emergence Protocol; conditions: Echinochloa crus-galli, pre-emergence, 312 h, evaluated after 13 days
Procedure, shortened: as §1

[7] = system: ivy-leaved morning glory (Ipomoea hederacea); assay: Test G Post-Emergence Protocol; conditions: Ipomoea, post-emergence, 312 h, read-out: Morningglory, Ivy-leaved damage rating
Procedure, shortened: (§2)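 Pot-grown seedlings, 8 days old, raised in a glasshouse at 24/16 °C day/night with 14 h light and 65% humidity, were sprayed post-emergence with test compound in acetone/water (50:50) plus 0.5% Tween 20 at 15.625, 62.5 or 250 g/ha. Damage was scored visually 13 days later on a 0–100 scale (100 = total damage).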

[8] = system: velvetleaf (Abutilon theophrasti); assay: Test G Post-Emergence Protocol; conditions: Abutilon theophrasti, post-emergence, 312 h, read-out: Velvetleaf damage rating
Procedure, shortened: as §2

[9] = system: giant foxtail (Setaria faberi); assay: Test G Post-Emergence Protocol; conditions: Setaria faberi, post-emergence, 312 h, read-out: Foxtail, Giant damage rating
Procedure, shortened: as §2

corn (Zea mays) [10] = assay: Test G Post-Emergence Protocol; conditions: Zea mays, post-emergence, 312 h, read-out: Corn damage rating
Procedure, shortened: as §2

[11] = system: redroot pigweed (Amaranthus retroflexus); assay: Test G Post-Emergence Protocol; conditions: Amaranthus retroflexus, post-emergence, 312 h, read-out: Pigweed, Redroot damage rating
Procedure, shortened: as §2

[12] = system: barnyardgrass (Echinochloa crus-galli); assay: Test G Post-Emergence Protocol; conditions: Echinochloa crus-galli, post-emergence, 312 h, read-out: Barnyardgrass damage rating
Procedure, shortened: as §2

[13] = 15.625 g ai/ha, evaluated after 13 days (100=total damage to plant; 0=no damage to plant)
[14] = 62.5 g ai/ha, evaluated after 13 days, 100=total damage to plant, 0=no damage to plant
[15] = 250 g ai/ha, evaluated after 13 days, 100=total damage to plant, 0=no damage to plant

## Cc1c(F)ccc(NC(=O)[C@@H]2C(=O)N(C)C[C@H]2c2ccc(C(F)(F)F)cc2)c1Cl (racemic) [Compound 1651]
[1]; 15.625 g ai/ha, read-out: Morningglory, Ivy-leaved damage rating (100=total damage to plant; 0=no damage to plant)
  pest or weed control at 15.625 g/ha: 0%
[1]; 62.5 g ai/ha, 100=total damage to plant, 0=no damage to plant, read-out: Morningglory, Ivy-leaved damage rating
  pest or weed control at 62.5 g/ha: 0%
[1]; 250 g ai/ha, read-out: Morningglory, Ivy-leaved damage rating (100=total damage to plant; 0=no damage to plant)
  pest or weed control at 250 g/ha: 0%
[2]; 15.625 g ai/ha, read-out: Velvetleaf damage rating (100=total damage to plant; 0=no damage to plant)
  pest or weed control at 15.625 g/ha: 0%
[2]; 62.5 g ai/ha, 100=total damage to plant, 0=no damage to plant, read-out: Velvetleaf damage rating
  pest or weed control at 62.5 g/ha: 0%
[2]; 250 g ai/ha, read-out: Velvetleaf damage rating (100=total damage to plant; 0=no damage to plant)
  pest or weed control at 250 g/ha: 10%
[3]; 15.625 g ai/ha, read-out: Foxtail, Giant damage rating (100=total damage to plant; 0=no damage to plant)
  pest or weed control at 15.625 g/ha: 0%
[3]; 62.5 g ai/ha, 100=total damage to plant, 0=no damage to plant, read-out: Foxtail, Giant damage rating
  pest or weed control at 62.5 g/ha: 20%
[3]; 250 g ai/ha, read-out: Foxtail, Giant damage rating (100=total damage to plant; 0=no damage to plant)
  pest or weed control at 250 g/ha: 80%
Corn (Zea mays) [4]; 15.625 g ai/ha, read-out: Corn damage rating (100=total damage to plant; 0=no damage to plant)
  plant injury at 15.625 g/ha: 0%
Corn (Zea mays) [4]; 62.5 g ai/ha, 100=total damage to plant, 0=no damage to plant, read-out: Corn damage rating
  plant injury at 62.5 g/ha: 0%
Corn (Zea mays) [4]; 250 g ai/ha, read-out: Corn damage rating (100=total damage to plant; 0=no damage to plant)
  plant injury at 250 g/ha: 0%
[5]; 15.625 g ai/ha, read-out: Pigweed, Redroot damage rating (100=total damage to plant; 0=no damage to plant)
  pest or weed control at 15.625 g/ha: 0%
[5]; 62.5 g ai/ha, 100=total damage to plant, 0=no damage to plant, read-out: Pigweed, Redroot damage rating
  pest or weed control at 62.5 g/ha: 10%
[5]; 250 g ai/ha, read-out: Pigweed, Redroot damage rating (100=total damage to plant; 0=no damage to plant)
  pest or weed control at 250 g/ha: 20%
[6]; 15.625 g ai/ha, read-out: Barnyardgrass damage rating (100=total damage to plant; 0=no damage to plant)
  pest or weed control at 15.625 g/ha: 0%
[6]; 62.5 g ai/ha, 100=total damage to plant, 0=no damage to plant, read-out: Barnyardgrass damage rating
  pest or weed control at 62.5 g/ha: 0%
[6]; 250 g ai/ha, read-out: Barnyardgrass damage rating (100=total damage to plant; 0=no damage to plant)
  pest or weed control at 250 g/ha: 20%
[7]; [13]
  pest or weed control at 15.625 g/ha: 0%
[7]; [14]
  pest or weed control at 62.5 g/ha: 10%
[7]; [15]
  pest or weed control at 250 g/ha: 10%
[8]; [13]
  pest or weed control at 15.625 g/ha: 0%
[8]; [14]
  pest or weed control at 62.5 g/ha: 0%
[8]; [15]
  pest or weed control at 250 g/ha: 10%
[9]; [13]
  pest or weed control at 15.625 g/ha: 0%
[9]; [14]
  pest or weed control at 62.5 g/ha: 70%
[9]; [15]
  pest or weed control at 250 g/ha: 90%
Corn (Zea mays) [10]; [13]
  plant injury at 15.625 g/ha: 0%
Corn (Zea mays) [10]; [14]
  plant injury at 62.5 g/ha: 0%
Corn (Zea mays) [10]; [15]
  plant injury at 250 g/ha: 0%
[11]; [13]
  pest or weed control at 15.625 g/ha: 0%
[11]; [14]
  pest or weed control at 62.5 g/ha: 0%
[11]; [15]
  pest or weed control at 250 g/ha: 0%
[12]; [13]
  pest or weed control at 15.625 g/ha: 0%
[12]; [14]
  pest or weed control at 62.5 g/ha: 30%
[12]; [15]
  pest or weed control at 250 g/ha: 10%
